Test results as given in patent US7649018B2, “Mono- and di-phosphates of 3-(3-fluoro-4-hydroxy-phenyl)-7-hydroxy-naphthalene-1-carbonitrile” (Wyeth LLC, priority 2007, dated 2010).

Assay: Stability of intravenous stock solution
Assay type: physicochemical
Conditions: stock solution 10 mg/mL in phosphate buffered saline adjusted to pH about 7.4 with NaOH; at 40 C
Method: Preparation Procedures: An intravenous formulation will be made as a stock solution (10 mg/mL) one day prior to the start of dosing consisting of phosphate buffered saline adjusted to pH about 7.4 with NaOH. The dosing formulations will be prepared on the day of dosing by diluting the appropriate amount of the stock solution with D5W to obtain concentrations of 3.14 mg/mL of Compound 3 and then will be sterile filtered using a 0.20 micron filter about few hours prior to the start of dosing. The test formulation was stored at approximately 4° C. protected from light. The vehicle used for IV introduction was phosphate buffered saline consisting of 0.0144% (w/v) of KH2PO4, 0.90% (w/v) of NaCL, 0.0795% (w/v) of Na2HPO4, 0.325% of NaOH (1N) and […] sterile water for injection with the resulting pH of approximately 7.4. The stock solution (10 mg/mL) is stable for 7 days at 40 C.

N#Cc1cc(-c2ccc(OP(=O)(O)O)c(F)c2)cc2ccc(OP(=O)(O)O)cc12 [Compound 3]
Time over which stock solution is stable: 7 days
